In patent publication US20150291593A1, “NOVEL HETEROARYL AND HETEROCYCLE COMPOUNDS, COMPOSITIONS AND METHODS” (HUTCHISON MEDIPHARMA LIMITED, priority 2012, published 2015):

Key:
PI3Kγ = molecular target: T1, PI3Kγ (Mus musculus, UniProt Q9JHG7); assay: Acumen Assay - Raw264.7 p-AKT Assay (C5a stimulated); type: cell-based; conditions: Raw264.7 macrophage cells, compound 30 min, 10 nM C5a 5 min, p-AKT (Ser473) readout; read-out: PI3Kγ cell-C5a Raw264.7 IC50
T1 construct: endogenous in cells; host or cells: Raw264.7 macrophage cells
Experimental: Acumen® eX3 (A Mμltilaser Microplate Cytometer For Enhanced High Content Screening): TTP LabTech
3×10^4 Raw264.7 macrophage cells were seeded into 96-well plates with DMEM+10% heat-inactivated FBS at […], 90 ul/well, overnight. After starvation for 3 hr at 37° C. under 5% CO2, Raw264.7 cells were treated with 10 ul/well various concentrations of compound or 0.5% DMSO for 30 min, and then stimulated with 10 ul/well 10 nM C5a for 5 min.
1.) Cells were fixed 110 μL of 4% pre-warmed Paraformaldehyde (2% final), incubate for 45 min at room temperature.
2.) Remove paraformaldehyde solution. Add 100 μL of ice-cold 0.1% Triton X-100 in PBS and leave at 4° C. for 30 min.
3.) Wash once in 100 μL PBS.
4.) Incubate with 100 μL blocking buffer (1% BSA, in PBS) for 2 hours at room temperature.
5.) Wash once for 5 min with 100 ul PBS.
6.) Incubate with 40 μL 1:200 dilution of phospho AKT (Ser473) rabbit antibody in antibody dilution buffer (0.1% BSA, in PBS) overnight at 4° C.
7.) Wash for 3 times for 10 min with 100 ul PBS.
8.) Incubate for 90 min at room temperature with 50 μL of goat anti-rabbit Alex488 antibody at a 1:1,000 dilution in antibody dilution buffer (0.1% BSA, in PBS). Cover plate in foil to keep out of light.
9.) Wash for 3 times for 10 min with 100 μL PBS.
10.) Add 50 μL of 1.5 μM Propidium Iodide solution to each well to determine cell number at a 1:1,000 dilution in PBS (stock: 1.5 mM).
11.) Incubate at room temperature for 30 min.
12.) Seal the plate with a black cover-seal (supplied with plate).
13.) Load the plate into the Acumen Explorer and scan with the appropriate instrument settings.

p110α/p85α = molecular target: T2, p110α/p85α (Homo sapiens, UniProt P42336); assay: Transcreener KINASE Assay, kinase inhibition of p110α/p85α; type: biochemical
T2 construct: purchased Invitrogen
Experimental: (§1) PI3K kinases including p110α/p85α, p110δ/p85α and p110γ are purchased from Invitrogen, and p110β/p85α is from Millipore.
(§2) Primary screening data and IC50 values are measured using Transcreener™ KINASE Assay (Bellbrook, Catalog #3003-10K). […] It is a universal, homogenous, high throughput screening (HTS) technology using a far-red, competitive fluorescence polarization immunoassay based on the detection of ADP to monitor the activity of enzymes that catalyze group transfer reactions. Briefly, the Transcreener KINASE Assay is designed as a simple two-part, endpoint assay.
(§3) In the first step, the 25 ul kinase reaction is performed by preparing a reaction mixture containing 5 ul test compound (2% DMSO final concentration), 10 ul kinase, buffer (50 mM HEPES, 100 mM NaCl, 1 mM EGTA, 0.03% CHAPS, 3 mM MgCl2, and freshly supplemented 1 mM DTT), and 10 ul 30 uM PIP2/10 uM ATP. The plate is sealed and incubated for 80 min at room temperature. Next, 25 ul ADP detection mix is added per well. The plate is sealed again and incubated for 60 min at room temperature, and then measure fluorescence polarization by Tecan Infinite F500 Reader.
(§4) Data is analyzed and IC50s are generated using the add-in software for Microsoft Excel, Xlfit™ (version 2.0). IH %=(ADP amount under 2% DMSO-ADP amount under test compound)/ADP amount under 2% DMSO.

p110γ = molecular target: T3, p110γ (Homo sapiens, UniProt P48736); assay: Transcreener KINASE Assay, kinase inhibition of p110γ; type: biochemical; conditions: for IC50: read-out: PI3Kγ IC50
T3 construct: purchased Invitrogen
Experimental: PI3K kinases including p110α/p85α, p110δ/p85α and p110γ are purchased from Invitrogen, and p110β/p85α is from Millipore. Primary screening data and IC50 values are measured using Transcreener™ KINASE Assay (Bellbrook, Catalog #3003-10K). […] It is a universal, homogenous, high throughput screening (HTS) technology using a far-red, competitive fluorescence polarization immunoassay based on the detection of ADP to monitor the activity of enzymes that catalyze group transfer reactions. Briefly, the Transcreener KINASE Assay is designed as a simple two-part, endpoint assay. […] The plate is sealed and incubated for 80 min at room temperature. Next, 25 ul ADP detection mix is added per well. The plate is sealed again and incubated for 60 min at room temperature, and then measure fluorescence polarization by Tecan Infinite F500 Reader. Data is analyzed and IC50s are generated using the add-in software for Microsoft Excel, Xlfit™ (version 2.0).

p110β/p85α = molecular target: T4, p110β/p85α (Homo sapiens, UniProt P42338); assay: Transcreener KINASE Assay, kinase inhibition of p110β/p85α; type: biochemical; conditions: for IC50: read-out: PI3Kβ IC50
T4 construct: purchased Millipore
Experimental: as §1, §2, §3, §4

p110δ/p85α = molecular target: T5, p110δ/p85α (Homo sapiens, UniProt O00329); assay: Transcreener KINASE Assay, kinase inhibition of p110δ/p85α; type: biochemical; conditions: for IC50: read-out: PI3Kδ IC50
T5 construct: purchased Invitrogen
Experimental: as §1, §2, §3, §4

T1 sequence (Q9JHG7 whole entry): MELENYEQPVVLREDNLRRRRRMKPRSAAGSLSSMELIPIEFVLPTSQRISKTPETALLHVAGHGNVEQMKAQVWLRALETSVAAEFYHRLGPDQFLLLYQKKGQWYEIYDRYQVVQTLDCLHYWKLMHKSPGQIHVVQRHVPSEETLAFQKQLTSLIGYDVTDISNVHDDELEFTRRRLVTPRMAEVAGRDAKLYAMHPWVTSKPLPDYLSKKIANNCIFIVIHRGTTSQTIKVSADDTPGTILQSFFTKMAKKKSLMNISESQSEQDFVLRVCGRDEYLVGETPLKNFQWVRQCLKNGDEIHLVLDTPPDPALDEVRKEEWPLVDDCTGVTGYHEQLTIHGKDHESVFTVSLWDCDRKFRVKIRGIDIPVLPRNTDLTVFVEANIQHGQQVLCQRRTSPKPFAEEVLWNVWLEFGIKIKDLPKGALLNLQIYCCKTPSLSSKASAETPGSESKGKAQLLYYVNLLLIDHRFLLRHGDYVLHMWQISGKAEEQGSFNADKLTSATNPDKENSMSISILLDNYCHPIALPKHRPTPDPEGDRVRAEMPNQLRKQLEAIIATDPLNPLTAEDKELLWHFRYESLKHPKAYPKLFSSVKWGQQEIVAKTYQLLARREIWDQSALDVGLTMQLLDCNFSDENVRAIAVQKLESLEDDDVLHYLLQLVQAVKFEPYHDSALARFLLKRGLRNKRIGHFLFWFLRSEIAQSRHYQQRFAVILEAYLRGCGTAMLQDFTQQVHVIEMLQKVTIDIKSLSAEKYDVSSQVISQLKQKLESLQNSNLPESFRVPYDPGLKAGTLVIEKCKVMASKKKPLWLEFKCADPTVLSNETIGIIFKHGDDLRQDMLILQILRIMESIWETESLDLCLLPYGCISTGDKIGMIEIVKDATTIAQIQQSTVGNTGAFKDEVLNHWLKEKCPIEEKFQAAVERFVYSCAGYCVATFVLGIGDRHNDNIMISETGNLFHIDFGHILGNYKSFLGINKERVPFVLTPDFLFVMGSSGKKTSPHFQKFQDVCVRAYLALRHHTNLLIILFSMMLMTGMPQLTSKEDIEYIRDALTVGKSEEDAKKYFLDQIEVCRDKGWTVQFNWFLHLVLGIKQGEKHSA
T3 sequence (P48736 whole entry, species assumed): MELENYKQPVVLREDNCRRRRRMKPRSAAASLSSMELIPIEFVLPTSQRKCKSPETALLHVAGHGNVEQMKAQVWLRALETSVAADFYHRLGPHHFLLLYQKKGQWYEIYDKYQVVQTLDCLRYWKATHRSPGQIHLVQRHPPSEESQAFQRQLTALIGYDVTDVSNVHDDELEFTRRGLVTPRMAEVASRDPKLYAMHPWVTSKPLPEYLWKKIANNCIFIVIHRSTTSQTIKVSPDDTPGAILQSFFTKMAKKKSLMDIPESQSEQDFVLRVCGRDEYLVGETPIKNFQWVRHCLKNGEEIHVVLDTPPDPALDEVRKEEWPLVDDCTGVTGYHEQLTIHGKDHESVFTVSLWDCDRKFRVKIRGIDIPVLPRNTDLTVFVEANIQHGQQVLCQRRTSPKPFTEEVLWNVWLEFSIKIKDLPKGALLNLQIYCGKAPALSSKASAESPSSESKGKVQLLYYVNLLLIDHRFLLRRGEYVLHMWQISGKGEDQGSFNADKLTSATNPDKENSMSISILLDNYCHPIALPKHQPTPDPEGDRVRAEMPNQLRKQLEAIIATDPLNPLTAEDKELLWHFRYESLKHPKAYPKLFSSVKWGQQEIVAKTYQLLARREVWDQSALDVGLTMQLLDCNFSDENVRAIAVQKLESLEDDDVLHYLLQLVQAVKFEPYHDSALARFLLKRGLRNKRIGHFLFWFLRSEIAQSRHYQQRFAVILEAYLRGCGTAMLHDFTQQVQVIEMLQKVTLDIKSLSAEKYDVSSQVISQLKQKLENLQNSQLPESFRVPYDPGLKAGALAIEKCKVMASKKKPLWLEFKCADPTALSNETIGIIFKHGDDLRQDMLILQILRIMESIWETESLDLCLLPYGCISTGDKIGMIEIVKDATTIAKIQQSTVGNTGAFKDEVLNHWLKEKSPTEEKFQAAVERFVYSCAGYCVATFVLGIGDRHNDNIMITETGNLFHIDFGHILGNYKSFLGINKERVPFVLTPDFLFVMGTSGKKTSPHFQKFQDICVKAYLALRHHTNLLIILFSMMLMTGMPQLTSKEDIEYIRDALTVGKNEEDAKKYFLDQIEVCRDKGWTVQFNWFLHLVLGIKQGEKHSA
T5 sequence (O00329 whole entry, species assumed): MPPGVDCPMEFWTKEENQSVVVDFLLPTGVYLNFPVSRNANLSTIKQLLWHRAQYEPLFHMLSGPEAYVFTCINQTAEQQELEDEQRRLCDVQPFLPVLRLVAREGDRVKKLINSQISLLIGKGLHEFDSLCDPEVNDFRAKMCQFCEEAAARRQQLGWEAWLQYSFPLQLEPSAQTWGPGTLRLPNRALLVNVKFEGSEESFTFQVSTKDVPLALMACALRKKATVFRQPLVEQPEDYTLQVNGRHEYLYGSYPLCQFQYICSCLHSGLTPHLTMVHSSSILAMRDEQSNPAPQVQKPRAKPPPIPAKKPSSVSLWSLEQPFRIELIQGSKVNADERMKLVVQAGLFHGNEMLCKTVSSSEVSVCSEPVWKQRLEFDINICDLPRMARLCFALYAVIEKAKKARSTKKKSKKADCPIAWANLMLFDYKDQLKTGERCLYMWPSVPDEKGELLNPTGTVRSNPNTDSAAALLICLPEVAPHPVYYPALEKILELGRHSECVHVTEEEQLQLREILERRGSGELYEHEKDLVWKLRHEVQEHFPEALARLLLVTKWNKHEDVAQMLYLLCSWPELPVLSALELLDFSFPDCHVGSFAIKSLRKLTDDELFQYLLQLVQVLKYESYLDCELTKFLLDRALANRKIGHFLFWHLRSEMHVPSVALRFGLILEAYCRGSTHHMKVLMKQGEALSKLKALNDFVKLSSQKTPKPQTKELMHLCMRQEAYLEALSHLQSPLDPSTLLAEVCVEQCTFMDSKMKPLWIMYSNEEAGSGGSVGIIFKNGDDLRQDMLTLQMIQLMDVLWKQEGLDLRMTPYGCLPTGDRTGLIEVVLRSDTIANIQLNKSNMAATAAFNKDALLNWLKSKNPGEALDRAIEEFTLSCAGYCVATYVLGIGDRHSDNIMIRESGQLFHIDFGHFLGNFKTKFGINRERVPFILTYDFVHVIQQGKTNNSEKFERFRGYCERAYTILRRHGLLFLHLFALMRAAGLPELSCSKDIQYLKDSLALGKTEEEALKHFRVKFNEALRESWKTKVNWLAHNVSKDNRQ
T5 sequence (P27986 whole entry partner, species assumed): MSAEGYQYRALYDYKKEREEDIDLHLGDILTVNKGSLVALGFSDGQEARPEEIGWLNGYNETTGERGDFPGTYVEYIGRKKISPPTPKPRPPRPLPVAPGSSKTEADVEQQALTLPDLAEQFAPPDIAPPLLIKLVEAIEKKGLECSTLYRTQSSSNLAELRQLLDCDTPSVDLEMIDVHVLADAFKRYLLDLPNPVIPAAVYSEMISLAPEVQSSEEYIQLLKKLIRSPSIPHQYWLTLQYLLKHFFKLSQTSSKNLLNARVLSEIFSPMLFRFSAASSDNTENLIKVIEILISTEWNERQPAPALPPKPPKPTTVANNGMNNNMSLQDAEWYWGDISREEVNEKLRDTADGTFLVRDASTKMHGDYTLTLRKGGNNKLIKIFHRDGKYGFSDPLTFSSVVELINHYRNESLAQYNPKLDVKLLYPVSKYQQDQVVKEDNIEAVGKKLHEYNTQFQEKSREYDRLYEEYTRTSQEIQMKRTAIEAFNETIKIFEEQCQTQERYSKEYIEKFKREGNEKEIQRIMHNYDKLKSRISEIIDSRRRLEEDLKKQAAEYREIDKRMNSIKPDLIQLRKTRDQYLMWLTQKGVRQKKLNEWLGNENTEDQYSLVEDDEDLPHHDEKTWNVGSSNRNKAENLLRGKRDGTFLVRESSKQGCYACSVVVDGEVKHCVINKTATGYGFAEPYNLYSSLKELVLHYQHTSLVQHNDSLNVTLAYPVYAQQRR
T4 sequence (P42338 whole entry, species assumed): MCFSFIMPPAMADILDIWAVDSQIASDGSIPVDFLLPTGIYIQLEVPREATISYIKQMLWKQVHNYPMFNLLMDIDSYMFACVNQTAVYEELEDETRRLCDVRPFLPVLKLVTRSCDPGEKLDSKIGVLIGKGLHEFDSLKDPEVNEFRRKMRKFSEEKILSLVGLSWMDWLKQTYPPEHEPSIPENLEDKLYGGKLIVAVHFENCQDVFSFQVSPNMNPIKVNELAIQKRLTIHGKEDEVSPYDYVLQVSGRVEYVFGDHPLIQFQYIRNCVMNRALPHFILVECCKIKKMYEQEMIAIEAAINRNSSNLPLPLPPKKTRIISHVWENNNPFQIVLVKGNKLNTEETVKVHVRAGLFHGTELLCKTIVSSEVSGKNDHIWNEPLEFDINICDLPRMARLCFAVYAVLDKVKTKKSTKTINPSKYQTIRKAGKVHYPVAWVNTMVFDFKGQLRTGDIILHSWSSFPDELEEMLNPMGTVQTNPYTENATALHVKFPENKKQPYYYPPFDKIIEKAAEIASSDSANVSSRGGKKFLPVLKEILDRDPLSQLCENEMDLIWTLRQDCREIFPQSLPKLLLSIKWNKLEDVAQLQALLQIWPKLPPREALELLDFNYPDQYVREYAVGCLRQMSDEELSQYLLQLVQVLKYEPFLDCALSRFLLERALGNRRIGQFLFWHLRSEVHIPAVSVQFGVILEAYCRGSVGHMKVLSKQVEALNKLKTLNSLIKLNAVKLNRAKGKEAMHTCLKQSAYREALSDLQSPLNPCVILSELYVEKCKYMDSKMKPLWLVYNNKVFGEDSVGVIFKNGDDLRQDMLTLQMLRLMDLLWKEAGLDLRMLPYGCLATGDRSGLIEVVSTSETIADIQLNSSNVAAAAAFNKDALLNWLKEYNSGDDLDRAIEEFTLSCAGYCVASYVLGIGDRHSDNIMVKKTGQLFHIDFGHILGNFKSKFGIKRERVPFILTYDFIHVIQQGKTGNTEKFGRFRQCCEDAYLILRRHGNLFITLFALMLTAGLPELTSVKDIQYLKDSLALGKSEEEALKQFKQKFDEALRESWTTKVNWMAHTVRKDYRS
T4 sequence (P27986 whole entry partner, species assumed): as the sequence (P27986 whole entry partner, species assumed) above

Row | SMILES | IC50 (PI3Kγ) [µM] | also measured
1 | N#Cc1cnc(N)nc1N1CCC[C@H]1c1nn2ccc(Cl)c2c(=O)n1-c1cccc(F)c1 [Compound 232] | 0.044 | –
2 | O=c1c2c(Cl)ccn2nc([C@@H]2C[C@H](F)CN2c2ncnc3[nH]cnc23)n1-c1cccc(F)c1 [Compound 214] | 0.015 | –
3 | N#Cc1cnc(N)nc1N1CC[C@H]1c1nn2ccc(Cl)c2c(=O)n1-c1ccccc1 [Compound 212] | – | IC50 (p110α/p85α; read-out: PI3Kα IC50): > 1 µM
4 | N#Cc1c(N)ncnc1N1CCC[C@H]1c1nn2cccc2c(=O)n1-c1ccccc1 [Compound 5] | – | PI3Kγ IH % @ 1 uM (p110γ): 69.6%; PI3Kβ IH % @ 1 uM (p110β/p85α): 46.4%; PI3Kα IH % @ 1 uM (p110α/p85α): 32.5%; PI3Kδ IH % @ 1 uM (p110δ/p85α): 98.3%
5 | Nc1nc(N2CCC[C@H]2c2nn3cccc3c(=O)n2-c2ccccc2)c2nc[nH]c2n1 [Compound 2] | – | PI3Kγ IH % @ 1 uM (p110γ): 98.8%; PI3Kβ IH % @ 1 uM (p110β/p85α): 38.0%; PI3Kα IH % @ 1 uM (p110α/p85α): 5.1%; PI3Kδ IH % @ 1 uM (p110δ/p85α): 98.2%
6 | O=c1c2c(F)ccn2nc([C@@H]2CCCN2c2ncnc3[nH]cnc23)n1-c1cccc(F)c1 [Compound 191] | 0.054 | –
7 | N#Cc1c[nH]c2ncnc(N3CCC[C@H]3c3nn4ccc(C#N)c4c(=O)n3-c3ccccc3)c12 [Compound 113] | – | PI3Kγ IH % @ 1 uM (p110γ): >100%; IC50 (p110γ): 0.043 µM; PI3Kβ IH % @ 1 uM (p110β/p85α): 74.9%; IC50 (p110β/p85α): 0.244 µM; PI3Kα IH % @ 1 uM (p110α/p85α): 28.3%; PI3Kδ IH % @ 1 uM (p110δ/p85α): 99.3%; IC50 (p110δ/p85α): 0.006 µM
8 | N#Cc1c[nH]c2ncnc(N3CC(=O)C[C@H]3c3nn4ccc(Cl)c4c(=O)n3-c3ccccc3)c12 [Compound 380, (S)-4-(2-(5-chloro-4-oxo-3-phenyl-3,4-dihydropyrrolo[2,1-f][1,2,4]triazin-2-yl)-4-oxopyrrolidin-1-yl)-7H-pyrrolo[2,3-d]pyrimidine-5-carbonitrile] | 0.019 | –
9 | N#Cc1cnc(N)nc1N1C[C@@H](F)C[C@H]1c1nn2ccc(Cl)c2c(=O)n1-c1ccccc1 [Compound 229] | 0.011 | –
10 | O=c1c2c(Cl)ccn2nc([C@@H]2CCCN2c2ncnc3[nH]cnc23)n1-c1ccccn1 [Compound 311] | 0.054 | IC50 (p110δ/p85α): < 0.0005 µM
11 | Nc1ncc(C(=O)C(F)(F)F)c(N2CC[C@H]2c2nn3ccc(Cl)c3c(=O)n2-c2ccccc2)n1 [Compound 325] | 0.08 | IC50 (p110β/p85α): > 1 µM
12 | C[C@H]1CCN(c2nc(N)ncc2C#N)C1c1nn2ccc(Cl)c2c(=O)n1-c1ccccc1 (stereo partly drawn) [Compound 236] | 0.046 | IC50 (p110γ): 0.004 µM; IC50 (p110β/p85α): 0.081 µM; IC50 (p110δ/p85α): 0.002 µM
13 | CC(=O)c1cnc(N)nc1N1C[C@H](C)[C@H]1c1nn2ccc(Cl)c2c(=O)n1-c1ccc(F)cc1 [Compound 206] | 0.005 | –
14 | N#Cc1c[nH]c2ncnc(N3C[C@@H](F)C[C@H]3c3nn4ccc(Cl)c4c(=O)n3-c3cccc(F)c3)c12 [Compound 213] | 0.002 | –
15 | N#Cc1cnc(N)nc1N1C[C@@H](C#N)C[C@H]1c1nn2ccc(Cl)c2c(=O)n1-c1ccccc1 [Compound 351] | 0.005 | –
16 | CC(=O)c1cnc(N)nc1N1CCC[C@H]1c1nn2ccc(Cl)c2c(=O)n1-c1ccccc1 [Compound 369, (S)-2-(1-(5-acetyl-2-aminopyrimidin-4-yl)pyrrolidin-2-yl)-5-chloro-3-phenylpyrrolo[2,1-f][1,2,4]triazin-4(3H)-one] | 0.022 | –
17 | N#Cc1c[nH]c2ncnc(N3CCCC3c3cn4ccc(Cl)c4c(=O)n3-c3ccccc3)c12 (stereo not drawn) [Compound 364] | 0.006 | –
18 | N#Cc1cnc(N)nc1N1CCC[C@H]1c1nn2ccc(Cl)c2c(=O)n1-c1ccc(F)cc1 [Compound 231] | 0.015 | –
19 | CC(=O)c1c[nH]c2ncnc(N3C[C@@H](F)C[C@H]3c3nn4ccc(Cl)c4c(=O)n3-c3ccccc3)c12 [Compound 268] | 0.019 | PI3Kγ IH % @ 1 uM (p110γ): 100%
20 | CC(=O)c1c[nH]c2ncnc(N3CCC[C@H]3c3nn4ccc(Cl)c4c(=O)n3-c3ccccn3)c12 [Compound 340] | 0.045 | –
21 | N#Cc1cnc(N)nc1N1CCC[C@H]1c1nn2ccc(Cl)c2c(=O)n1-c1ccccc1 [Compound 207] | 0.022 | –
22 | CC(=O)c1cnc(N)nc1N1CC[C@H]1c1nn2ccc(Cl)c2c(=O)n1-c1ccc(F)cc1 [Compound 302] | 0.043 | –

Now from value to compound, other results behind:

Row | IC50 (PI3Kγ) [µM] | SMILES | also measured
23 | 0.043 | CC(=O)c1cnc(N)nc1NC(C)c1cc2ncc(Cl)n2c(=O)n1-c1ccccc1 (stereo not drawn) [Compound 288] | –
24 | 0.08 | CC(=O)c1cnc(N)nc1N1CC[C@H]1c1nn2ccc(F)c2c(=O)n1-c1ccccc1 [Compound 323] | –
25 | 0.003 | Cc1nc(N)nc(N2CC[C@H]2c2nn3ccc(Cl)c3c(=O)n2-c2ccccc2)c1C#N [Compound 283] | –
26 | 0.036 | CC(=O)c1c[nH]c2ncnc(NC(C)c3cn4ccc(Cl)c4c(=O)n3-c3ccccc3)c12 (stereo not drawn) [Compound 272] | –
27 | 0.042 | CC(=O)c1c[nH]c2ncnc(N3CCC[C@H]3c3nn4ccc(F)c4c(=O)n3-c3ccccc3)c12 [Compound 218] | –
28 | 0.063 | CC(Nc1nc(N)nc2c1C(=O)CCN2)c1cn2ccc(F)c2c(=O)n1-c1ccccc1 (single isomer, unassigned) [Compound 407] | IC50 (p110γ): 0.002 µM; IC50 (p110β/p85α): 0.068 µM; IC50 (p110δ/p85α): 0.001 µM
29 | 0.072 | CC(Nc1ncnc2[nH]cc(F)c12)c1cc2ncc(Cl)n2c(=O)n1-c1ccccc1 (single isomer, unassigned) [Compound 450] | IC50 (p110γ): 0.017 µM; IC50 (p110β/p85α): 0.042 µM; IC50 (p110δ/p85α): 0.0004 µM
30 | 0.009 | CC(=O)c1cnc(N)nc1N1CCCC1c1cn2ccc(Cl)c2c(=O)n1-c1ccccc1 (stereo not drawn) [Compound 321] | –
31 | 0.022 | Nc1nc2c(c(N3CC[C@H]3c3nn4ccc(Cl)c4c(=O)n3-c3ccccc3)n1)C(=O)CCN2 [Compound 241] | –
32 | 0.087 | CC(Nc1nc(N)ncc1C#N)c1cn2ccc(F)c2c(=O)n1-c1ccccc1 (single isomer, unassigned) [Compound 449] | IC50 (p110γ): 0.004 µM; IC50 (p110β/p85α): 0.045 µM; IC50 (p110δ/p85α): 0.001 µM
33 | 0.003 | CC(=O)c1cnc(N)nc1NC(C)c1cn2ccc(Cl)c2c(=O)n1-c1ccccc1 (stereo not drawn) [Compound 273] | –
34 | 0.046 | CC(Nc1ncnc2[nH]cc(F)c12)c1cc2ncc(Cl)n2c(=O)n1-c1ccccc1 (stereo not drawn) [Compound 285] | –
35 | 0.063 | CC(=O)c1cnc(N)nc1N1C[C@H](C)[C@H]1c1nn2ccc(F)c2c(=O)n1-c1ccccc1 [Compound 324] | –
36 | 0.006 | CC(=O)c1cnc(N)nc1N1CC[C@H]1c1nn2ccc(Cl)c2c(=O)n1-c1ccccc1 [Compound 299] | –
37 | 0.021 | Nc1nc2c(c(N3CCC[C@H]3c3nn4ccc(Cl)c4c(=O)n3-c3ccccc3)n1)C(=O)CCN2 [Compound 242] | –
38 | 0.011 | N#Cc1cnc(N)nc1N1CC(=O)C[C@H]1c1nn2ccc(Cl)c2c(=O)n1-c1ccccc1 [Compound 403] | –
39 | 0.065 | CC(Nc1ncnc2[nH]cc(F)c12)c1cn2ccc(Cl)c2c(=O)n1-c1ccccc1 (stereo not drawn) [Compound 270] | –
